Reference: patent US8865134B2, “Chewing gum” (Med-Eq AS, priority 2005, dated 2014)

System: amylase enzyme
Assay: Amylase inhibition (salivary and intestinal amylase)
Type: biochemical
Details: amylase present in saliva and in the gut

Q: `O=C(/C=C/c1ccc(O)c(O)c1)O[C@@H]1C[C@](O)(C(=O)O)C[C@@H](O)[C@H]1O` [chlorogenic acid] was tested. Which “Effect on amylase enzyme” value did it give?
A: Its value is “blocks the amylase enzyme”.
